The values that follow are results of earlier work, collected in patent US12201712B2, “Method for dyeing keratinous material, comprising the use of an organosilicon compound, a phosphoric acid ester and a dyeing compound” (Henkel AG & Co. KGaA, priority 2020, dated 2025).

Each structure is given as a SMILES string.

In the case of `CCN(Cc1cccc(S(=O)(=O)O)c1)c1ccc(C(=C2C=CC(=[N+](CC)Cc3cccc(S(=O)(=O)O)c3)C=C2)c2ccccc2S(=O)(=O)[O-])cc1` [Acid Blue 9], the water solubility entry (25° C.) is on record as “greater than 20 wt. %”.

With `O=S(=O)(O)c1ccc(N=Nc2c(O)ccc3ccccc23)cc1` [Acid Orange 7, 4-[(2-hydroxy-1-naphthyl)azo]benzene sulphonate], for the setting “25° C.”, the solubility in water entry is reported as “more than 7 g/L”. Consider `O=[N+]([O-])c1cc([N+](=O)[O-])c2ccc(S(=O)(=O)O)cc2c1O` [Acid Yellow 9, 8-hydroxy-5,7-dinitro-2-naphthalenesulfonic acid], for which the solubility in water entry (25° C.) is “above 40 g/L”.

Regarding `O=C(O)C1=NN(c2ccc(S(=O)(=O)O)cc2)C(=O)C1N=Nc1ccc(S(=O)(=O)O)cc1` (stereo not shown) [Acid Yellow 23, 4,5-dihydro-5-oxo-1-(4-sulfophenyl)-4-((4-sulfophenyl)azo)-1H-pyrazole-3-carboxylic acid], the “solubility in water (in words)” value (at 25° C.) is “readily soluble in water”.
